Assay results as given in ChEMBL document CHEMBL4673279, “Aromatic Ring Substituted Aaptamine Analogues as Potential Cytotoxic Agents against Extranodal Natural Killer/T-Cell Lymphoma” (J Nat Prod, 2020).

How the values were obtained:
HeLa = assay: Cytotoxicity against human HeLa cells assessed as reduction in cell viability after 48 hrs by CCK8 assay; assay type: functional, cell-based
NB-4 = assay: Cytotoxicity against human NB4 cells assessed as reduction in cell viability after 48 hrs by CCK8 assay; assay type: functional, cell-based; conditions: NB-4, 48 h
MCF7 = assay: Cytotoxicity against human MCF7 cells assessed as reduction in cell viability after 48 hrs by CCK8 assay; assay type: functional, cell-based; conditions: MCF7, 48 h
[1] = (§1) Cytotoxicity against human SNK6 cells assessed as reduction in cell viability after 48 hrs by CCK8 assay; assay type: functional, cell-based; conditions: SNK6, 48 h
GES1 = assay: Cytotoxicity against human GES1 cells assessed as reduction in cell viability after 48 hrs by CCK8 assay; assay type: cell-based; conditions: GES1, 48 h
U-937 = assay: Cytotoxicity against human U937 cells assessed as reduction in cell viability after 48 hrs by CCK8 assay; assay type: functional, cell-based
Ramos = assay: Cytotoxicity against human Ramos cells assessed as reduction in cell viability after 48 hrs by CCK8 assay; assay type: functional, cell-based
L02 = assay: Cytotoxicity against human L02 cells assessed as reduction in cell viability after 48 hrs by CCK8 assay; assay type: cell-based; conditions: L02, 48 h
SNT8 = assay: Cytotoxicity against human SNT8 cells assessed as reduction in cell viability after 48 hrs by CCK8 assay; assay type: functional, cell-based
[2] = Cytotoxicity against human NK92 cells assessed as cell viability at 20 uM after 48 hrs by CCK8 assay relative to control; assay type: cell-based; conditions: read-out: Activity
SUD4 = assay: Cytotoxicity against human SU-DHL-4 cells assessed as reduction in cell viability after 48 hrs by CCK8 assay; assay type: functional, cell-based
[3] = (§2) Cytotoxicity against human WSUDLCL2 cells assessed as reduction in cell viability after 48 hrs by CCK8 assay; assay type: functional, cell-based; conditions: WSUDLCL2, 48 h
WSUDLCL2 = assay: as §2; assay type: functional, cell-based
[4] = Cytotoxicity against human HEK293T cells assessed as cell viability at 20 uM after 48 hrs by CCK8 assay relative to control; assay type: cell-based, HEK-293T; conditions: read-out: Activity
SNK6 = assay: as §1; assay type: functional, cell-based
Raji = assay: Cytotoxicity against human Raji cells assessed as reduction in cell viability after 48 hrs by CCK8 assay; assay type: functional, cell-based

COc1c(OC)c2c3c(nccc3c1-c1cccc3ccccc13)C(c1cccc3ccccc13)=CN2 gave an IC50 (HeLa) of 8.2 µM, an IC50 (NB-4) greater than 20 µM and an IC50 (MCF7) greater than 20 µM. The IC50 [1] was greater than 20 µM.
In the case of COc1c(OC)c2c3c(nccc3c1-c1cccc(C(F)(F)F)c1)C(c1cccc(C(F)(F)F)c1)=CN2, the IC50 (HeLa) is reported as 18 µM, the IC50 (NB-4) is reported as 7.1 µM and the IC50 (MCF7) is reported as greater than 20 µM. It also gave an IC50 [1] of 8.6 µM.
For COc1c(OC)c2c3c(nccc3c1-c1ccc(F)cc1)C(c1ccc(F)cc1)=CN2, the IC50 (HeLa) was 8.7 µM, the IC50 (NB-4) was 19 µM and the IC50 (MCF7) was greater than 20 µM. The IC50 [1] was greater than 20 µM.
With COc1c(OC)c2c3c(nccc3c1-c1ccccc1)C=CN2 the IC50 (HeLa) was greater than 20 µM, the IC50 (NB-4) was greater than 20 µM and the IC50 (MCF7) was greater than 20 µM. It also gave an IC50 [1] greater than 20 µM.
For COc1c(OC)c2c3c(nccc3c1-c1ccc(C)cc1)C(c1ccc(C)cc1)=CN2, the IC50 (HeLa) was 12 µM, the IC50 (NB-4) was 18 µM and the IC50 (MCF7) was greater than 20 µM. It also gave an IC50 [1] of 11 µM.
For COc1c(OC)c2c3c(nccc3c1-c1ccc(Cl)cc1)C=CN2, the IC50 (HeLa) was 1.9 µM, the IC50 (NB-4) was greater than 20 µM and the IC50 (MCF7) was 9.4 µM. For the same compound, the IC50 [1] was 7.7 µM.
For COc1cc2ccnc3c2c(c1OC)NC=C3c1cccc(F)c1, the IC50 (HeLa) was greater than 20 µM, the IC50 (NB-4) was greater than 20 µM and the IC50 (MCF7) was greater than 20 µM. For the same compound, the IC50 [1] was greater than 20 µM.
With COc1c(OC)c2c3c(nccc3c1-c1cccc(F)c1)C(c1cccc(F)c1)=CN2 the IC50 (HeLa) was 17 µM, the IC50 (NB-4) was greater than 20 µM and the IC50 (MCF7) was 20 µM. For the same compound, the IC50 [1] was 10 µM.
Compound COc1cc2ccnc3c2c(c1OC)NC=C3c1ccccc1 has an IC50 (HeLa) of 17 µM, an IC50 (NB-4) greater than 20 µM and an IC50 (MCF7) of 12 µM. The IC50 [1] was 8.9 µM.
COc1cc2ccnc3c2c(c1OC)NC=C3 [AAPTAMINE] showed an IC50 (HeLa) of 19 µM, an IC50 (NB-4) greater than 20 µM and an IC50 (MCF7) greater than 20 µM. The IC50 [1] was greater than 20 µM.
COc1cc2ccnc3c2c(c1OC)NC=C3c1cccc(C(F)(F)F)c1 showed an IC50 (HeLa) of 15 µM, an IC50 (NB-4) greater than 20 µM and an IC50 (MCF7) of 17 µM. For the same compound, the IC50 [1] was 8.8 µM.
COc1c(OC)c2c3c(nccc3c1-c1cccc(C(C)C)c1)C=CN2 gave an IC50 (HeLa) greater than 20 µM, an IC50 (NB-4) greater than 20 µM and an IC50 (MCF7) greater than 20 µM. The IC50 [1] was greater than 20 µM.
With COc1c(OC)c2c3c(nccc3c1-c1ccc(C(F)(F)F)cc1)C(c1ccc(C(F)(F)F)cc1)=CN2 the IC50 (HeLa) was greater than 20 µM, the IC50 (NB-4) was greater than 20 µM and the IC50 (MCF7) was greater than 20 µM. For the same compound, the IC50 [1] was 9.4 µM.
In the case of COc1cc2ccnc3c2c(c1OC)NC=C3c1cccc(O)c1, the IC50 (HeLa) is reported as greater than 20 µM, the IC50 (NB-4) is reported as greater than 20 µM and the IC50 (MCF7) is reported as greater than 20 µM. For the same compound, the IC50 [1] was greater than 20 µM.
In the case of COc1c(OC)c2c3c(nccc3c1-c1cccc(C)c1)C(c1cccc(C)c1)=CN2, the IC50 (GES1) is reported as 2 µM, the Activity (U-937) is reported as “Dose-dependent effect” and the IC50 (U-937; U-937, 48 h) is reported as 2.8 µM. For the same compound, the Activity (Ramos) was “Dose-dependent effect”, the IC50 (Ramos) was 1.4 µM and the IC50 (L02) was 3.4 µM. The Activity (SNT8) was “Dose-dependent effect”, the viability at 48 h, 20 µM [2] was no more than 90% and the Activity (SUD4) was “Dose-dependent effect”. The IC50 (SUD4; SU-DHL-4, 48 h) was 0.8 µM, the IC50 [3] was 1.3 µM and the Activity (WSUDLCL2) was “Dose-dependent effect”. It also gave an IC50 (HeLa) of 7.2 µM, a viability at 48 h, 20 µM [4] of no more than 90% and an IC50 (NB-4) of 2.1 µM. For the same compound, the IC50 (MCF7) was 10 µM, the Activity (SNK6) was “Dose-dependent effect” and the IC50 [1] was 0.6 µM. For the same compound, the Activity (Raji) was “Dose-dependent effect” and the IC50 (Raji) was 1.4 µM.
In the case of COc1cc2ccnc3c2c(c1OC)NC=C3c1cccc(C)c1, the IC50 (HeLa) is reported as 12 µM, the IC50 (NB-4) is reported as greater than 20 µM and the IC50 (MCF7) is reported as greater than 20 µM. The IC50 [1] was greater than 20 µM.
Compound COc1c(OC)c2c3c(nccc3c1-c1ccc(C(F)(F)F)cc1)C=CN2 has an IC50 (HeLa) of 11 µM, an IC50 (NB-4) greater than 20 µM and an IC50 (MCF7) of 11 µM. It also gave an IC50 [1] greater than 20 µM.
CCc1ccc(C2=CNc3c(OC)c(OC)cc4ccnc2c34)cc1 showed an IC50 (HeLa) of 11 µM, an IC50 (NB-4) greater than 20 µM and an IC50 (MCF7) greater than 20 µM. The IC50 [1] was 4.9 µM.
COc1cc2ccnc3c2c(c1OC)NC=C3c1ccc(Cl)cc1 gave an IC50 (HeLa) greater than 20 µM, an IC50 (NB-4) greater than 20 µM and an IC50 (MCF7) greater than 20 µM. It also gave an IC50 [1] greater than 20 µM.
For COc1c(OC)c2c3c(nccc3c1-c1cccc(C(C)C)c1)C(c1cccc(C(C)C)c1)=CN2, the IC50 (HeLa) was greater than 20 µM, the IC50 (NB-4) was greater than 20 µM and the IC50 (MCF7) was greater than 20 µM. For the same compound, the IC50 [1] was greater than 20 µM.
In the case of COc1c(OC)c2c3c(nccc3c1-c1cccc(C(F)(F)F)c1)C=CN2, the IC50 (HeLa) is reported as 8.9 µM, the IC50 (NB-4) is reported as greater than 20 µM and the IC50 (MCF7) is reported as 3.2 µM. The IC50 [1] was 4.3 µM.
COc1c(OC)c2c3c(nccc3c1-c1ccccc1)C(c1ccccc1)=CN2 gave an IC50 (HeLa) of 11 µM, an IC50 (NB-4) greater than 20 µM and an IC50 (MCF7) of 19 µM. For the same compound, the IC50 [1] was greater than 20 µM.
Compound COc1ccc(C2=CNc3c(OC)c(OC)cc4ccnc2c34)cc1 has an IC50 (HeLa) greater than 20 µM, an IC50 (NB-4) greater than 20 µM and an IC50 (MCF7) greater than 20 µM. For the same compound, the IC50 [1] was greater than 20 µM.
COc1cc2ccnc3c2c(c1OC)NC=C3c1cccc(C(C)C)c1 gave an IC50 (HeLa) of 11 µM, an IC50 (NB-4) of 17 µM and an IC50 (MCF7) greater than 20 µM. It also gave an IC50 [1] of 8.4 µM.
Work on CCc1ccc(C2=CNc3c(OC)c(OC)c(-c4ccc(CC)cc4)c4ccnc2c34)cc1 yielded an IC50 (HeLa) of 17 µM, an IC50 (NB-4) of 16 µM and an IC50 (MCF7) of 18 µM. The IC50 [1] was 4.2 µM.
For COc1c(OC)c2c3c(nccc3c1-c1cccc3ccccc13)C=CN2, the IC50 (HeLa) was 18 µM, the IC50 (NB-4) was greater than 20 µM and the IC50 (MCF7) was greater than 20 µM. The IC50 [1] was 16 µM.
For COc1c(OC)c2c3c(nccc3c1-c1cc(C)cc(C)c1)C(c1cc(C)cc(C)c1)=CN2, the IC50 (HeLa) was 5.4 µM, the IC50 (NB-4) was 7.9 µM and the IC50 (MCF7) was 8.3 µM. For the same compound, the IC50 [1] was 3.1 µM.
For COc1ccc(-c2c(OC)c(OC)c3c4c(nccc24)C=CN3)cc1, the IC50 (HeLa) was 11 µM, the IC50 (NB-4) was greater than 20 µM and the IC50 (MCF7) was 9.8 µM. For the same compound, the IC50 [1] was 1.7 µM.
COc1c(OC)c2c3c(nccc3c1-c1ccc(Cl)cc1)C(c1ccc(Cl)cc1)=CN2 showed an IC50 (HeLa) of 11 µM, an IC50 (NB-4) of 17 µM and an IC50 (MCF7) greater than 20 µM. The IC50 [1] was 8.4 µM.
In the case of COc1cc2ccnc3c2c(c1OC)NC=C3c1cccc2ccccc12, the IC50 (HeLa) is reported as 4 µM, the IC50 (NB-4) is reported as greater than 20 µM and the IC50 (MCF7) is reported as greater than 20 µM. The IC50 [1] was greater than 20 µM.
COc1ccc(C2=CNc3c(OC)c(OC)c(-c4ccc(OC)cc4)c4ccnc2c34)cc1 showed an IC50 (HeLa) of 13 µM, an IC50 (NB-4) greater than 20 µM and an IC50 (MCF7) of 12 µM. For the same compound, the IC50 [1] was 5.8 µM.
